Laboratory results taken from patent publication US7964531B2, “3-phenoxy-4-pyridazinol derivatives and herbicidal composition containing the same” (Mitsui Chemicals Agro, Inc., priority 2001, dated 2011).

| melting point | Compound |
| --- | --- |
| 182 to 184 °C | CC#Cc1ccccc1Oc1nnc(Cl)cc1O [Compound No. 309, 6-Chloro-3-[2-(1-propynyl)phenoxy]-4-pyridazinol] |
| 240 to 241 °C | Cc1cccc(Oc2nnc(Cl)cc2O)c1C [Compound No. 456, 6-Chloro-3-(2,3-dimethylphenoxy)-4-pyridazinol] |
| 126 to 134 °C | COc1ccc(C)cc1Oc1nnc(Cl)cc1O [Compound No. 704, 6-Chloro-3-(2-methoxy-5-methylphenoxy)-4-pyridazinol] |
| 170 to 172 °C | CCCc1ccccc1Oc1nnc(Cl)cc1O [Compound No. 131, 6-Chloro-3-(2-propylphenoxy)-4-pyridazinol] |
| 89 to 90 °C | COc1cccc(Oc2nnc(Cl)cc2OS(=O)(=O)c2ccc(C)cc2)c1 [Compound No. 2238, 6-Chloro-3-(3-methoxyphenoxy)-4-pyridazinyl 4-methylbenzenesulfonate] |
| 226 to 229 °C | N#Cc1cccc(Oc2nnc(Cl)cc2O)c1 [Compound No. 420, 3-[(6-Chloro-4-hydroxy-3-pyridazinyl)oxy]benzonitrile] |
| 216 to 219 °C | Oc1ccccc1Oc1nnc(Cl)cc1O [Compound No. 384, 6-Chloro-3-(2-hydroxyphenoxy)-4-pyridazinol] |
| 215 to 216 °C | Oc1cc(Cl)nnc1Oc1ccccc1C1CC1(F)F (stereo not shown) [Compound No. 264, 6-Chloro-3-[2-(2,2-difluorocyclopropyl)phenoxy]-4-pyridazinol] |
| 213 to 215 °C | N#CC1(c2ccccc2Oc2nnc(Cl)cc2O)CCC1 [Compound No. 287, 1-{2-[(6-Chloro-4-hydroxy-3-pyridazinyl)oxy]phenyl}cyclobutanecarbonitrile] |
| 224 to 237 °C | COc1cccc(Oc2nnc(Cl)cc2O)c1C [Compound No. 459, 6-Chloro-3-(3-methoxy-2-methylphenoxy)-4-pyridazinol] |
| 187 to 191 °C | COc1ccc(F)cc1Oc1nnc(Cl)cc1O [Compound No. 700, 6-Chloro-3-(5-fluoro-2-methoxyphenoxy)-4-pyridazinol] |
| 232 to 237 °C | Oc1cc(Cl)nnc1Oc1cccc2c1CCCC2 [Compound No. 521, 6-Chloro-3-(5,6,7,8-tetrahydro-1-naphthalenyloxy)-4-pyridazinol] |
| 200 to 203 °C | Cc1cc(C)c(C2CC2)c(Oc2nnc(Cl)cc2O)c1 [Compound No. 1023, 6-Chloro-3-(2-cyclopropyl-3,5-dimethylphenoxy)-4-pyridazinol] |
| 105 to 108 °C | Cc1ccc(C(=O)Oc2cc(Cl)nnc2Oc2ccccc2C)cc1 [Compound No. 1553, 6-Chloro-3-(2-methylphenoxy)-4-pyridazinyl 4-methylbenzoate] |
| 227 to 228 °C | Oc1cc(Cl)nnc1Oc1cc(F)ccc1C1CC1 [Compound No. 658, 6-Chloro-3-(2-cyclopropyl-5-fluorophenoxy)-4-pyridazinol] |
| 233 to 235 °C | CC(C)c1ccc(Oc2nnc(Cl)cc2O)cc1 [Compound No. 432, 6-Chloro-3-(4-isopropylphenoxy)-4-pyridazinol] |
| 217 to 219 °C | O=[N+]([O-])c1cccc(Oc2nnc(Cl)cc2O)c1 [Compound No. 424, 6-Chloro-3-(3-nitrophenoxy)-4-pyridazinol] |
| 201 to 202 °C | Cc1cccc(C2CC2)c1Oc1nnc(Cl)cc1O |
| 231 to 234 °C | COc1cccc(Oc2nnc(Cl)cc2O)c1I [Compound No. 2551, 6-Chloro-3-(2-iodo-3-methoxyphenoxy)-4-pyridazinol] |

| melting point | Compound |
| --- | --- |
| 99 to 100 °C | Cc1ccc(S(=O)(=O)Oc2cc(Cl)nnc2Oc2ccccc2C(C)C)cc1 [Compound No. 2222, 6-Chloro-3-(2-isopropylphenoxy)-4-pyridazinyl 4-methylbenzenesulfonate] |
| 95 to 97 °C | Cc1ccc(C(C)C)c(Oc2nnc(Cl)cc2OC(=O)c2ccccc2C)c1 [Compound No. 1459, 6-Chloro-3-(2-isopropyl-5-methylphenoxy)-4-pyridazinyl 2-methylbenzoate] |
| 96 to 97 °C | CCS(=O)(=O)Oc1cc(Cl)nnc1Oc1c(C)cccc1C1CC1 [Compound No. 2034, 6-Chloro-3-(2-cyclopropyl-6-methylphenoxy)-4-pyridazinyl ethanesulfonate] |
| 160 to 163 °C | CC(C)(C)c1ccccc1Oc1nnc(Cl)c([Si](C)(C)C)c1O |
| 248 to 251 °C | Oc1cccc(Oc2nnc(Cl)cc2O)c1 [Compound No. 2544, 6-Chloro-3-(3-hydroxyphenoxy)-4-pyridazinol] |
| 223 to 224 °C | Cc1cc(C)c(C)c(Oc2nnc(Cl)cc2O)c1 [Compound No. 1016, 6-Chloro-3-(2,3,5-trimethylphenoxy)-4-pyridazinol] |
| 225 to 228 °C | CCSc1cc(Oc2nnc(Cl)cc2O)c(Br)cc1Br [Compound No. 2596, 6-Chloro-3-[2,4-dibromo-5-(ethylsulfanyl)phenoxy]-4-pyridazinol] |
| 209 to 210 °C | COc1c(C)cc(C)c(C)c1Oc1nnc(Cl)cc1O [Compound No. 1128, 6-Chloro-3-(2-methoxy-3,5,6-trimethylphenoxy)-4-pyridazinol] |
| 194 to 196 °C | Cc1ccccc1Oc1n[n+]([O-])c(Cl)cc1O [Compound No. 129, 6-Chloro-3-(2-methylphenoxy)-4-pyridazinol 1-oxide] |
| 200 to 202 °C | Oc1cc(Cl)nnc1Oc1cccc(-c2ccco2)c1 [Compound No. 419, 6-Chloro-3-[3-(2-furyl)phenoxy]-4-pyridazinol] |
| 236 to 237 °C | Cc1ccccc1Oc1nnc(-c2ccccc2)cc1O [Compound No. 2464, 3-(2-Methylphenoxy)-6-phenyl-4-pyridazinol] |
| 153 to 157 °C | COc1ccccc1Oc1nnc(Cl)cc1OS(=O)(=O)c1ccc(C)cc1 [Compound No. 2232, 6-Chloro-3-(2-methoxyphenoxy)-4-pyridazinyl 4-methylbenzenesulfonate] |
| 207 to 209 °C | Oc1cc(Cl)nnc1Oc1ccccc1-c1ccsc1 [Compound No. 361, 6-Chloro-3-[2-(3-thienyl)phenoxy]-4-pyridazinol] |
| 205 to 208 °C | Cc1cccc(Oc2nnc(Cl)cc2O)c1 [Compound No. 413, 6-Chloro-3-(3-methylphenoxy)-4-pyridazinol] |
| 187 to 190 °C | COCC1(c2ccccc2Oc2nnc(Cl)cc2O)CC1 [Compound No. 163, 6-Chloro-3-{2-[1-(methoxymethyl)cyclopropyl]phenoxy}-4-pyridazinol] |
| 215 to 225 °C | CC(C)c1cc(Br)ccc1Oc1nnc(Cl)cc1O [Compound No. 566, 3-(4-Bromo-2-isopropylphenoxy)-6-chloro-4-pyridazinol] |
| 238 to 240 °C (dec.) | Cc1c(C)c(C)c(Oc2nnc(Cl)cc2O)c(C)c1C [Compound No. 2614, 6-Chloro-3-(2,3,4,5,6-pentamethylphenoxy)-4-pyridazinol] |
| 84 to 87 °C | Cc1cccc(C2CC2)c1Oc1nnc(Cl)cc1OC(=O)C(C)(C)C [Compound No. 1207, 6-Chloro-3-(2-cyclopropyl-6-methylphenoxy)-4-pyridazinyl pivalate] |
